# Laboratory results reported in JP2014074001A, “抗精神病剤” (KONAN MEDICAL CO Ltd, priority 2012, dated 2014).
# Assays:
# [1] = test system: fasting blood glucose [空腹時血糖値]; test: Example 1: fasting blood glucose in high-fat-diet ICR mice, olanzapine and β-glucan; assay type: in vivo, mouse; details: male ICR mice, 4 weeks, 16 h fast, tail vein, olanzapine 3 mg/kg/day p.o. and/or β-glucan 5 v/v% in drinking water, mean ± SD, high-fat control 84.4±14.65, normal diet control 72.6±10.49
# [2] = test system: fasting blood glucose [空腹時血糖値]; test: Example 2: fasting blood glucose in high-fat-diet ICR mice, clozapine and β-glucan; assay type: in vivo, mouse; details: male ICR mice, 4 weeks, 16 h fast, tail vein, clozapine 5 mg/kg/day p.o. with or without β-glucan 5 v/v% in drinking water
Compound,"fasting blood glucose, mean [1]",fasting blood glucose [2]
Cc1cc2c(s1)Nc1ccccc1N=C2N1CCN(C)CC1 [オランザピン],124.8 ± 16.44 mg/dL,–
CN1CCN(C2=Nc3cc(Cl)ccc3Nc3ccccc32)CC1 [クロザピン],–,124.0 ± 8.91 mg/dL
